Laboratory results from PubChem BioAssay (NCI).
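Cultured in 96-well plates, cells were exposed to test compound for 48 hours across five concentrations. TGI: concentration producing complete growth inhibition.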

What was measured:
Assay in all cases: NCI tumour cell line growth inhibition, 48 h
[1] = test system: CCRF-CEM leukemia
[2] = test system: HCT-116 colon
[3] = test system: RXF 393 renal
[4] = test system: SK-MEL-28 melanoma
[5] = test system: NCI-H460 lung
[6] = test system: SNB-75 CNS
[7] = test system: OVCAR-8 ovarian
[8] = test system: NCI-H226 lung
[9] = test system: A549 NSCLC
[10] = test system: MOLT-4 leukemia
[11] = test system: KM20L2 colon
[12] = test system: SN12C renal
[13] = test system: UACC-257 melanoma
[14] = test system: OVCAR-4 ovarian
[15] = test system: SF-295 CNS
[16] = test system: OVCAR-5 ovarian
[17] = test system: M19-MEL melanoma
[18] = test system: HT29 colon
[19] = test system: HOP-62 NSCLC
[20] = test system: A498 renal
[21] = test system: K-562 leukemia
[22] = test system: SN12K1 renal
[23] = test system: IGROV1 ovarian
[24] = test system: SW-620 colon
[25] = test system: DMS 273 small cell lung
[26] = test system: SF-268 CNS
[27] = test system: U251 CNS
[28] = test system: NCI-H522 lung
[29] = test system: SK-MEL-5 melanoma
[30] = test system: HOP-18 NSCLC
[31] = test system: CAKI-1 renal
[32] = test system: XF 498 CNS
[33] = test system: EKVX NSCLC
[34] = test system: SK-MEL-2 melanoma
[35] = test system: HL-60(TB) leukemia
[36] = test system: RPMI-8226 leukemia
[37] = test system: OVCAR-3 ovarian
[38] = test system: NCI/ADR-RES ovarian
[39] = test system: MALME-3M melanoma
[40] = test system: COLO 205 colon
[41] = test system: DLD-1 colon
[42] = test system: KM12 colon
[43] = test system: MCF7 breast
[44] = test system: SF-539 CNS
[45] = test system: HCC-2998 colon
[46] = test system: P388 leukemia
[47] = test system: HCT-15 colon
[48] = test system: HOP-92 NSCLC
[49] = test system: P388/ADR leukemia
[50] = test system: UACC-62 melanoma
[51] = test system: NCI-H23 lung
[52] = test system: SNB-19 CNS
[53] = test system: LOX IMVI melanoma
[54] = test system: SNB-78 CNS
[55] = test system: SK-OV-3 ovarian
[56] = test system: UO-31 renal
[57] = test system: 786-0 renal
[58] = test system: RXF-631 renal
[59] = test system: DMS 114 small cell lung
[60] = test system: LXFL 529 NSCLC
[61] = test system: M14 melanoma
[62] = test system: ACHN renal
[63] = test system: SR leukemia

NC(=S)N/N=C/c1ccc(OC(=O)COc2ccccc2Cl)cn1 showed a TGI [1] of over 65.8 µM, a TGI [2] of over 90 µM and a TGI [3] of over 100 µM. The TGI [4] was over 100 µM, the TGI [5] was over 100 µM and the TGI [6] was over 100 µM. For the same compound, the TGI [7] was over 100 µM, the TGI [8] was 73.9 µM and the TGI [9] was over 100 µM. For the same compound, the TGI [10] was over 88.7 µM, the TGI [11] was over 100 µM and the TGI [12] was over 100 µM. It also gave a TGI [13] of over 92.4 µM, a TGI [14] of over 100 µM and a TGI [15] of over 100 µM. For the same compound, the TGI [16] was 97.9 µM, the TGI [17] was over 92.2 µM and the TGI [18] was over 100 µM. It also gave a TGI [19] of 67.4 µM, a TGI [20] of over 100 µM and a TGI [21] of over 100 µM. For the same compound, the TGI [22] was over 100 µM, the TGI [23] was over 100 µM and the TGI [24] was over 100 µM. It also gave a TGI [25] of over 71.6 µM, a TGI [26] of over 100 µM and a TGI [27] of over 100 µM. For the same compound, the TGI [28] was over 77.2 µM, the TGI [29] was over 100 µM and the TGI [30] was over 100 µM. The TGI [31] was over 100 µM, the TGI [32] was over 92 µM and the TGI [33] was 97.8 µM. For the same compound, the TGI [34] was over 100 µM, the TGI [35] was 64.9 µM and the TGI [36] was over 100 µM. It also gave a TGI [37] of 99.1 µM, a TGI [38] of 59.3 µM and a TGI [39] of over 88.7 µM. It also gave a TGI [40] of over 100 µM, a TGI [41] of over 100 µM and a TGI [42] of over 100 µM. The TGI [43] was over 100 µM, the TGI [44] was 52.2 µM and the TGI [45] was over 87.4 µM. The TGI [46] was 13.4 µM, the TGI [47] was over 100 µM and the TGI [48] was over 90.3 µM. It also gave a TGI [49] of 20.7 µM, a TGI [50] of 42.7 µM and a TGI [51] of over 70.5 µM. The TGI [52] was over 100 µM, the TGI [53] was over 100 µM and the TGI [54] was over 100 µM. The TGI [55] was over 100 µM and the TGI [56] was 98.5 µM.

In the case of COC1(Cc2ccccc2)C(=O)c2ccccc2N1C(C)=O (configuration not stated), the TGI [1] is reported as over 100 µM, the TGI [2] is reported as over 100 µM and the TGI [3] is reported as over 100 µM. It also gave a TGI [4] of over 100 µM, a TGI [5] of over 100 µM and a TGI [6] of over 100 µM. It also gave a TGI [7] of over 100 µM, a TGI [57] of over 100 µM and a TGI [9] of over 100 µM. The TGI [10] was over 100 µM, the TGI [11] was over 100 µM and the TGI [12] was over 100 µM. It also gave a TGI [58] of over 100 µM, a TGI [13] of over 100 µM and a TGI [14] of over 100 µM. It also gave a TGI [15] of over 100 µM, a TGI [17] of over 100 µM and a TGI [18] of over 100 µM. The TGI [19] was over 100 µM, the TGI [20] was over 100 µM and the TGI [21] was over 100 µM. It also gave a TGI [59] of over 100 µM, a TGI [23] of over 100 µM and a TGI [24] of over 100 µM. For the same compound, the TGI [25] was over 100 µM, the TGI [27] was over 100 µM and the TGI [30] was over 100 µM. It also gave a TGI [31] of over 100 µM, a TGI [32] of over 100 µM and a TGI [60] of over 100 µM. It also gave a TGI [33] of over 100 µM, a TGI [34] of over 100 µM and a TGI [35] of over 100 µM. For the same compound, the TGI [36] was over 100 µM, the TGI [37] was over 100 µM and the TGI [61] was over 100 µM. It also gave a TGI [40] of over 100 µM, a TGI [41] of over 100 µM and a TGI [42] of over 100 µM. For the same compound, the TGI [44] was over 100 µM, the TGI [45] was over 100 µM and the TGI [62] was over 100 µM. For the same compound, the TGI [47] was over 100 µM, the TGI [48] was over 100 µM and the TGI [50] was over 100 µM. It also gave a TGI [51] of over 100 µM, a TGI [52] of over 100 µM and a TGI [63] of over 100 µM. It also gave a TGI [54] of over 100 µM, a TGI [55] of over 100 µM and a TGI [56] of over 100 µM.
